In the supplement of paper PMC4862054:

Legend:
Details in all cases: incubation time: 72 h
[1] = tested on: HDQ-P1; assay: normalised response (% of control), CellTiter-Glo; higher = more viable cells (100 = DMSO, 0 = benzethonium chloride kill control)
Summary of the method: (§1)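 Breast cancer cell lines were exposed for 72 h in 384-well plates to compound at 5 concentrations, 10-fold apart, covering a 10,000-fold range fixed for each compound. Plates were read for CellTox Green fluorescence and CellTiter-Glo luminescence and normalised to 0.1 % DMSO (100) and a positive kill control (0). Each value is the normalised signal at one concentration of the series.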

[2] = tested on: MDA-MB-436; assay: as above
Summary of the method: as §1

[3] = tested on: MFM-223; assay: as above
Summary of the method: as §1

[4] = tested on: BT-474; assay: as above
Summary of the method: as §1

[5] = tested on: CAL-85-1; assay: as above
Summary of the method: as §1

[6] = tested on: BT-549; assay: as above
Summary of the method: as §1

[7] = tested on: CAL-148; assay: as above
Summary of the method: as §1

[8] = tested on: MDA-MB-453; assay: as above
Summary of the method: as §1

[9] = tested on: MDA-MB-231; assay: as above
Summary of the method: as §1

[10] = tested on: HCC1599; assay: as above
Summary of the method: as §1

[11] = tested on: CAL-120; assay: as above
Summary of the method: as §1

[12] = tested on: CAL-51; assay: as above
Summary of the method: as §1

[13] = tested on: MDA-MB-468; assay: as above
Summary of the method: as §1

[14] = tested on: MCF-10A; assay: as above
Summary of the method: as §1

[15] = tested on: DU-4475; assay: as above
Summary of the method: as §1

[16] = tested on: HCC1937; assay: as above
Summary of the method: as §1

[17] = tested on: SK-BR-3; assay: as above
Summary of the method: as §1

[18] = tested on: Hs578T; assay: as above
Summary of the method: as §1

[19] = tested on: HCC1143; assay: as above
Summary of the method: as §1

[20] = tested on: HDQ-P1; assay: normalised response (% of control), CellTox Green; higher = less cell death (100 = DMSO, 0 = benzethonium chloride kill control)
Summary of the method: as §1

[21] = tested on: MDA-MB-436; assay: as above
Summary of the method: as §1

[22] = tested on: MFM-223; assay: as above
Summary of the method: as §1

[23] = tested on: BT-474; assay: as above
Summary of the method: as §1

[24] = tested on: CAL-85-1; assay: as above
Summary of the method: as §1

[25] = tested on: BT-549; assay: as above
Summary of the method: as §1

[26] = tested on: CAL-148; assay: as above
Summary of the method: as §1

[27] = tested on: MDA-MB-453; assay: as above
Summary of the method: as §1

[28] = tested on: MDA-MB-231; assay: as above
Summary of the method: as §1

[29] = tested on: HCC1599; assay: as above
Summary of the method: as §1

[30] = tested on: CAL-120; assay: as above
Summary of the method: as §1

[31] = tested on: CAL-51; assay: as above
Summary of the method: as §1

[32] = tested on: MDA-MB-468; assay: as above
Summary of the method: as §1

[33] = tested on: MCF-10A; assay: as above
Summary of the method: as §1

[34] = tested on: DU-4475; assay: as above
Summary of the method: as §1

[35] = tested on: HCC1937; assay: as above
Summary of the method: as §1

[36] = tested on: Hs578T; assay: as above
Summary of the method: as §1

[37] = tested on: HCC1143; assay: as above
Summary of the method: as §1

SMILES	normalised response [1] [%]	normalised response [2] [%]	normalised response [3] [%]	normalised response [4] [%]	normalised response [5] [%]	normalised response [6] [%]	normalised response [7] [%]	normalised response [8] [%]	normalised response [9] [%]	normalised response [10] [%]	normalised response [11] [%]	normalised response [12] [%]	normalised response [13] [%]	normalised response [14] [%]	normalised response [15] [%]	normalised response [16] [%]	normalised response [17] [%]	normalised response [18] [%]	normalised response [19] [%]	normalised response [20] [%]	normalised response [21] [%]	normalised response [22] [%]	normalised response [23] [%]	normalised response [24] [%]	normalised response [25] [%]	normalised response [26] [%]	normalised response [27] [%]	normalised response [28] [%]	normalised response [29] [%]	normalised response [30] [%]	normalised response [31] [%]	normalised response [32] [%]	normalised response [33] [%]	normalised response [34] [%]	normalised response [35] [%]	normalised response [36] [%]	normalised response [37] [%]
NS(=O)(=O)OC[C@@H]1C[C@@H](n2ccc3c(N[C@H]4CCc5ccccc54)ncnc32)C[C@@H]1O [Pevonedistat] (1000 nM)	89.3	34.6	59.5	63.6	49.9	34.6	118	80.6	71	40	61.9	21.2	33	107	0.82	83.3	35.5	73.2	61.2	104	80.8	102	101	86.6	85	104	99.4	106	95	96.4	-16	49.4	115	76.2	72.7	85	96.1
CN1CCN(CCOc2cc(OC3CCOCC3)c3c(Nc4c(Cl)ccc5c4OCO5)ncnc3c2)CC1 [Saracatinib] (1000 nM)	53.2	93.9	89.7	71.1	61.7	89.9	84.1	88.2	64.6	119	81.9	74.3	79.2	41.5	94	83.3	92.7	96.1	74.6	86.8	77.6	93.9	96.4	68.5	93	99.3	101	77.6	96	96.6	68.5	181	106	98.9	86.5	83.4	76.8
Cn1cncc1[C@@](N)(c1ccc(Cl)cc1)c1ccc2c(c1)c(-c1cccc(Cl)c1)cc(=O)n2C [Tipifarnib] (1000 nM)	76.4	65.1	73.8	80.5	110	75.1	66.8	73.8	90.6	111	79.4	52.2	74.9	86.9	66.4	74.5	59.4	80.6	80.5	102	94.4	101	100	98.8	136	96	107	103	90.8	97.4	57.2	105	73.9	95.6	45.6	108	110
CC[C@]1(O)C[C@H]2CN(CCc3c([nH]c4ccccc34)[C@@](C(=O)OC)(c3cc4c(cc3OC)N(C=O)[C@H]3[C@@](O)(C(=O)OC)[C@H](OC(C)=O)[C@]5(CC)C=CCN6CC[C@]43[C@@H]65)C2)C1 [Vincristine] (100 nM)	79.3	28.6	45.8	58.5	40.8	42.1	47.8	57.9	53.2	21.6	63.2	46.3	32.9	72.7	71.1	72.8	13.6	24.1	60.9	93	73.6	15.3	75.3	69.3	44.2	82.8	97.3	3.37	82.2	86.3	40.1	38.5	-44.4	100	62.1	62.5	94.3
